Measurements: the supplement of paper PMC10307832

Columns and labels:
Assay in all cases: relative viability (nuclei count vs DMSO), 5 days (fraction); higher = more cells survive
Neratinib = compound: CCOc1cc2ncc(C#N)c(Nc3ccc(OCc4ccccn4)c(Cl)c3)c2cc1NC(=O)/C=C/CN(C)C [Neratinib]
Summary of the method: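 A plate was accepted only when its control CV was below 25% and the cells had doubled at least once. Viability is defined from nuclear counts as treated wells divided by vehicle wells, with the median taken across plates. That median covers lung cancer cell lines grown in 1536-well plates, dosed by pinning at five √10-spaced library-drug concentrations, and counted in MetaXpress from 4× Hoechst images after 5 days.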

Neratinib + Trametinib = compound: CCOc1cc2ncc(C#N)c(Nc3ccc(OCc4ccccn4)c(Cl)c3)c2cc1NC(=O)/C=C/CN(C)C [Neratinib] + CC(=O)Nc1cccc(-n2c(=O)n(C3CC3)c(=O)c3c(Nc4ccc(I)cc4F)n(C)c(=O)c(C)c32)c1 [Trametinib] (partner 0.02 µM)
Summary of the method: (§1)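 Lung cancer cell lines were pin-tool dosed in 1536-well plates on the day after seeding, with either a lone drug or a fixed anchor-drug dose plus five library-drug doses (not always all listed) in √10 steps. Nuclei were counted on 4× images after 5 days. Relative viability is the ratio of treated-well to vehicle-well nuclei counts, with each value a median of duplicate plates.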

Neratinib + OSI-027 = compound: CCOc1cc2ncc(C#N)c(Nc3ccc(OCc4ccccn4)c(Cl)c3)c2cc1NC(=O)/C=C/CN(C)C [Neratinib] + COc1cccc2cc(-c3nc([C@H]4CC[C@H](C(=O)O)CC4)n4ncnc(N)c34)[nH]c12 [OSI-027] (partner 0.5 µM)
Summary of the method: as §1

Neratinib + Phenformin = compound: CCOc1cc2ncc(C#N)c(Nc3ccc(OCc4ccccn4)c(Cl)c3)c2cc1NC(=O)/C=C/CN(C)C [Neratinib] + N=C(N)NC(=N)NCCc1ccccc1 [Phenformin] (partner 250 µM)
Summary of the method: as §1

Cell Line	relative viability (Neratinib; 0.01 µM)	relative viability (Neratinib; 0.03162 µM)	relative viability (Neratinib; 0.1 µM)	relative viability (Neratinib; 0.3162 µM)	relative viability (Neratinib; 1 µM)	relative viability (Neratinib + Trametinib; first compound 0.01 µM)	relative viability (Neratinib + Trametinib; first compound 0.1 µM)	relative viability (Neratinib + Trametinib; first compound 0.3162 µM)	relative viability (Neratinib + Trametinib; first compound 1 µM)	relative viability (Neratinib + OSI-027; first compound 0.01 µM)	relative viability (Neratinib + OSI-027; first compound 0.03162 µM)	relative viability (Neratinib + OSI-027; first compound 0.1 µM)	relative viability (Neratinib + OSI-027; first compound 0.3162 µM)	relative viability (Neratinib + OSI-027; first compound 1 µM)	relative viability (Neratinib + Phenformin; first compound 0.01 µM)	relative viability (Neratinib + Phenformin; first compound 0.03162 µM)	relative viability (Neratinib + Phenformin; first compound 0.1 µM)	relative viability (Neratinib + Phenformin; first compound 0.3162 µM)	relative viability (Neratinib + Phenformin; first compound 1 µM)	relative viability (Neratinib + Trametinib; first compound 0.03162 µM)
201T	1.01	0.996	0.929	1.02	0.934	0.755	0.688	0.707	0.707	0.725	0.889	0.683	0.646	0.611	0.484	0.424	0.44	0.379	0.42	
A549	1.06	1.07	0.856	0.911	0.516										0.162	0.189		0.137	0.191	
A-427	1.19	1.1	1.01	0.949	0.986	0.835	0.807	0.637	0.337	0.487	0.499	0.467	0.332	0.218	0.427	0.313	0.32	0.281	0.268	0.85
ABC-1	1.06	1.06	0.898	0.777	0.364					0.436	0.441	0.47	0.42	0.214	0.211	0.236	0.285	0.231	0.215	
BEN		1.18	1.03	0.849	0.753	1.02	1	0.883	0.792	0.286	0.304	0.275	0.283	0.286	0.259	0.279	0.22	0.251	0.248	1.2
CAL-12T	1.06	1.09	0.868	0.631	0.301	0.322	0.236	0.254	0.223	0.614	0.719	0.345	0.237	0.197	0.55	0.572	0.488	0.254	0.179	0.322
COR-L23	1.21	1.17	0.87	1.02	0.86	0.572	0.598	0.482	0.379	0.863	0.862	0.753	0.68	0.285	0.44	0.469	0.429	0.473	0.41	0.603
COR-L 105	0.904		0.687	0.329	0.297	0.49	0.372	0.32	0.4	0.863	0.54	0.36	0.226	0.283	0.537	0.467	0.304	0.221	0.193	0.441
Calu-6	1.06		0.992	0.955	0.835															
ChaGo-K-1	0.995	1.12	0.896	0.865	0.971	0.886	0.754	0.882	0.845	0.62	0.545	0.574	0.459	0.613	0.466	0.518	0.482	0.432	0.401	0.941
EKVX	1.04	0.976	0.812	0.43	0.25	0.353	0.315	0.139	0.162	0.712	0.693	0.656	0.365	0.195	0.241	0.244	0.226	0.206	0.132	0.334
EMC-BAC-2	1.32	1.01	0.977	0.935	0.722	0.949	0.855	0.793	0.671	0.36	0.456	0.344	0.361	0.291	0.586	0.554	0.505	0.451	0.377	0.885
EPLC-272H	0.867	0.869	0.841	0.666	0.358	0.278	0.253	0.248	0.22		0.294		0.24	0.194		0.309	0.317	0.235	0.157	0.321
H3255	1.07	0.985	0.78	0.327	0.224	0.619	0.426	0.241	0.236	0.559	0.571	0.436	0.212	0.215	0.311	0.28	0.242	0.222	0.246	0.602
HARA	1.02	1.05	0.668	0.663	0.644	0.545	0.516		0.303	0.533	0.527		0.225	0.129	0.387	0.578	0.385	0.318	0.215	0.786
HCC-15	1.04	1.15	0.932	0.878	0.886	0.329	0.362	0.349	0.325	0.707	0.794	0.6	0.559	0.511	0.537	0.576	0.456	0.368	0.349	0.402
HCC-44	1.06	1.01	1.01	0.943	1.06	1.14	1.11	1.08	1.09	0.723	0.655	0.648	0.505	0.548	0.22	0.228	0.213	0.157	0.245	1.08
